Test results: patent publication US8846933B2, “N-link hydroxamic acid derivatives useful as antibacterial agents” (Pfizer Inc., priority 2009, dated 2014)

What was measured:
[1] = tested on: Pseudomonas aeruginosa UI-18: Wild-type (PA-7); experiment: MIC determination (CLSI), strain PA-7; format: cell-based; details: strain PA-7, unit assumed
In short: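 MIC determined by broth dilution per CLSI M7-A7 guidelines with M100-S18 interpretive standards. Test organism: wild-type Pseudomonas aeruginosa UI-18, designated PA-7.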

[2] = tested on: Escherichia coli EC-1: VOGEL, mouse virulent; experiment: MIC determination (CLSI), strain EC-1; format: cell-based; details: strain EC-1, unit assumed
In short: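 The mouse-virulent VOGEL isolate of E. coli, EC-1, served as test organism. Minimum inhibitory concentration was measured by CLSI dilution methodology (M7-A7; M100-S18 standards).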

[3] = generated in the same manner as in Table 4

Compound	PA-7 (MIC) [1]	EC-1 (MIC) [2]	PA-7 (MIC) [1, 3]	EC-1 (MIC) [2, 3]
C[C@@](CCn1ccc(-c2ccc(-n3cncn3)cc2)cc1=O)(C(=O)NO)S(C)(=O)=O [Example 371, (2R)-N-hydroxy-2-methyl-2-(methylsulfonyl)-4-{2-oxo-4-[4-(1H-1,2,4-triazol-1-yl)phenyl]pyridin-1(2H)-yl}butanamide]	8 µg/mL	32 µg/mL		
Cc1c(-c2ccc(Cl)cc2)ccn(CC[C@](C)(C(=O)NO)S(C)(=O)=O)c1=O [Example 396, (2R)-4-[4-(4-chlorophenyl)-3-methyl-2-oxopyridin-1(2H)-yl]-N-hydroxy-2-methyl-2-(methylsulfonyl)butanamide]	0.5 µg/mL	0.25 µg/mL		
C[C@H](O)c1ccc2cc(-c3ccn(CC[C@](C)(C(=O)NO)S(C)(=O)=O)c(=O)c3)ccc2c1 [Example 360, (2R)-N-hydroxy-4-[4-{6-[(1S)-1-hydroxyethyl]-2-naphthyl}-2-oxopyridin-1(2H)-yl]-2-methyl-2-(methylsulfonyl)butanamide]	1 µg/mL	0.5 µg/mL		
Cc1ccc(C#N)c(Oc2ccc(-c3ccn(CC[C@](C)(C(=O)NO)S(C)(=O)=O)c(=O)c3)cc2)n1 [Example 438, (2R)-4-[4-{4-[(3-cyano-6-methylpyridin-2-yl)oxy]phenyl}-2-oxopyridin-1(2H)-yl]-N-hydroxy-2-methyl-2-(methylsulfonyl)butanamide]	8 µg/mL	4 µg/mL		
Cc1cc(-c2ccn(CCC(C)(C(=O)NO)S(C)(=O)=O)c(=O)c2)c(C)cc1OCCO (stereo not drawn) [Example 233, N-hydroxy-4-{4-[4-(2-hydroxyethoxy)-2,5-dimethylphenyl]-2-oxopyridin-1(2H)-yl}-2-methyl-2-(methylsulfonyl)butanamide]	> 64 µg/mL	> 64 µg/mL		
CC(CCn1ccc(-c2ccc3[nH]ccc3c2)cc1=O)(C(=O)NO)S(C)(=O)=O (stereo not drawn) [Example 79]			4 µg/mL	4 µg/mL
CC(=O)c1ccc(-c2ccn(CC[C@](C)(C(=O)NO)S(C)(=O)=O)c(=O)c2)c(F)c1 [Example 320]	2 µg/mL	1 µg/mL		
COc1cc(-c2ccn(CCC(C)(C(=O)NO)S(C)(=O)=O)c(=O)c2)ccc1F (stereo not drawn) [Example 208, 4-[4-(4-fluoro-3-methoxyphenyl)-2-oxopyridin-1(2H)-yl]-N-hydroxy-2-methyl-2-(methylsulfonyl)butanamide]	16 µg/mL	32 µg/mL		
Cc1c(-c2ccc(OC(F)F)cc2)ccn(CC[C@](C)(C(=O)NO)S(C)(=O)=O)c1=O [Example 399, (2R)-4-{4-[4-(difluoromethoxy)phenyl]-3-methyl-2-oxopyridin-1(2H)-yl}-N-hydroxy-2-methyl-2-(methylsulfonyl)butanamide]	1 µg/mL	0.5 µg/mL		
Cn1nnc(-c2ccc(-c3ccn(CC[C@](C)(C(=O)NO)S(C)(=O)=O)c(=O)c3)cc2)n1 [Example 376]	2 µg/mL	0.5 µg/mL		
CC(CCn1ccc(-c2ccoc2)cc1=O)(C(=O)NO)S(C)(=O)=O (stereo not drawn) [Example 118, 4-[4-(3-furyl)-2-oxopyridin-1(2H)-yl]-N-hydroxy-2-methyl-2-(methylsulfonyl)butanamide]			64 µg/mL	> 64 µg/mL
C[C@@](CCn1ccc(-c2ccc(OC(F)F)cc2)cc1=O)(C(=O)NO)S(C)(=O)=O [Example 338, (2R)-4-{4-[4-(difluoromethoxy)phenyl]-2-oxopyridin-1(2H)-yl}-N-hydroxy-2-methyl-2-(methylsulfonyl)butanamide]	0.5 µg/mL	0.5 µg/mL		
CC(=O)c1ccc(-c2ccn(CCC(C)(C(=O)NO)S(C)(=O)=O)c(=O)c2)cc1O (stereo not drawn) [Example 99, 4-[4-(4-acetyl-3-hydroxyphenyl)-2-oxopyridin-1(2H)-yl]-N-hydroxy-2-methyl-2-(methylsulfonyl)butanamide]			16 µg/mL	8 µg/mL
CC(CCn1ccc(-c2ccc(OCCCN3CCSCC3)cc2)cc1=O)(C(=O)NO)S(C)(=O)=O (stereo not drawn) [Example 81, N-hydroxy-2-methyl-2-(methylsulfonyl)-4-{2-oxo-4-[4-(3-thiomorpholin-4-ylpropoxy)phenyl]pyridin-1(2H)-yl}butanamide]			4 µg/mL	2 µg/mL
C[C@@](CCn1ccc(-c2cccc(OC(F)F)c2)cc1=O)(C(=O)NO)S(C)(=O)=O [Example 480]	4 µg/mL	8 µg/mL		
CC(CCn1ccc(-c2cc3ccncc3cc2F)cc1=O)(C(=O)NO)S(C)(=O)=O (stereo not drawn) [Example 306, 4-[4-(7-fluoroisoquinolin-6-yl)-2-oxopyridin-1(2H)-yl]-N-hydroxy-2-methyl-2-(methylsulfonyl)butanamide]	4 µg/mL	8 µg/mL		
Cc1cc(-c2ccn(CCC(C)(C(=O)NO)S(C)(=O)=O)c(=O)c2)ccc1OCCCN1CCOCC1 (stereo not drawn) [Example 222, N-hydroxy-2-methyl-4-{4-[3-methyl-4-(3-morpholin-4-ylpropoxy)phenyl]-2-oxopyridin-1(2H)-yl}-2-(methylsulfonyl)butanamide]	8 µg/mL	2 µg/mL		
Cc1ccc(F)cc1-c1ccn(CCC(C)(C(=O)NO)S(C)(=O)=O)c(=O)c1 (stereo not drawn) [Example 171, 4-[4-(5-fluoro-2-methylphenyl)-2-oxopyridin-1(2H)-yl]-N-hydroxy-2-methyl-2-(methylsulfonyl)butanamide]			32 µg/mL	64 µg/mL
Cc1cc(-c2ccn(CCC(C)(C(=O)NO)S(C)(=O)=O)c(=O)c2)ccc1OCCCO (stereo not drawn) [Example 248, N-hydroxy-4-{4-[4-(3-hydroxypropoxy)-3-methylphenyl]-2-oxopyridin-1(2H)-yl}-2-methyl-2-(methylsulfonyl)butanamide]	4 µg/mL	2 µg/mL		
CC(C)(C#N)Cc1ccc(-c2ccn(CC[C@](C)(C(=O)NO)S(C)(=O)=O)c(=O)c2)cc1 [Example 343, (2R)-4-{4-[4-(2-cyano-2-methylpropyl)phenyl]-2-oxopyridin-1(2H)-yl}-N-hydroxy-2-methyl-2-(methylsulfonyl)butanamide]	2 µg/mL	8 µg/mL		
CC(CCn1ccc(-c2ccc(Br)c(F)c2)cc1=O)(C(=O)NO)S(C)(=O)=O (stereo not drawn) [Example 282, 4-[4-(4-bromo-3-fluorophenyl)-2-oxopyridin-1(2H)-yl]-N-hydroxy-2-methyl-2-(methylsulfonyl)butanamide]	1 µg/mL	0.5 µg/mL		
Cc1nc(C)n(-c2ccc(-c3ccn(CC[C@](C)(C(=O)NO)S(C)(=O)=O)c(=O)c3)cc2)n1 [Example 384, (2R)-4-{4-[4-(3,5-dimethyl-1H-1,2,4-triazol-1-yl)phenyl]-2-oxopyridin-1(2H)-yl}-N-hydroxy-2-methyl-2-(methylsulfonyl)butanamide]	16 µg/mL	8 µg/mL		
COc1ccc(-c2ccn(CC[C@](C)(C(=O)NO)S(C)(=O)=O)c(=O)c2)cc1C [Example 346, (2R)-N-hydroxy-4-[4-(4-methoxy-3-methylphenyl)-2-oxopyridin-1(2H)-yl]-2-methyl-2-(methylsulfonyl)butanamide]	0.5 µg/mL	0.5 µg/mL		
C[C@@](CCn1ccc(-c2ccc(Oc3noc4ccccc34)cc2)cc1=O)(C(=O)NO)S(C)(=O)=O [Example 450, (2R)-4-{4-[4-(1,2-benzisoxazol-3-yloxy)phenyl]-2-oxopyridin-1(2H)-yl}-N-hydroxy-2-methyl-2-(methylsulfonyl)butanamide]	2 µg/mL	0.06 µg/mL		
